{"source": "patent US20240327359A1", "about": "“3-ISOXAZOLIDINONE COMPOUND, PREPARATION METHOD, HERBICIDAL COMPOSITION AND APPLICATION THEREOF” (QINGDAO KINGAGROOT CHEMICAL COMPOUND CO., LTD., priority 2021, published 2024)", "key": {"rice": {"system": "rice", "assay": "Pre-emergence stage, crop damage", "format": "in vivo", "settings": "2 weeks", "excerpt": "(§1) The activity level criteria for plant damage (i.e., growth control rate) are as follows:\n(§2) The above growth control rates are fresh weight control rates.\n(§3) Monocotyledonous and dicotyledonous weed seeds (Descurainia sophia, Capsella bursa-pastoris, Abutilon theophrasti, Galium aparine, Stellaria media, Lithospermum arvense, Rorippa indica, Alopecurus aequalis, Alopecurus japonicus, Eleusine indica, Beckmannia syzigachne, Sclerochloa dura, Phleum paniculatum, Veronica didyma, Bromus japonicus, Aegilops tauschii, Phalaris arundinacea, Amaranthus retroflexus, Chenopodiaceae, Commelina communis, Sonchus arvensis, Convolvulus arvensis, Cirsium setosum, Solanumnigrum, Acalypha australis, Digitaria sanguinalis, Echinochloa crusgalli, Setaria viridis, Setaria glauca, Leptochloa chinensis, Monochoria vaginalis, Sagittaria trifolia, Scirpus juncoides, Cyperus rotundus, Cyperus iria, Cyperus difformis, Fimbristylis, Portulaca oleracea, Xanthium sibiricum, Pharbitis nil, Conyza Canadensis, etc.) and major crop seeds (wheat, corn, rice, soybean, cotton, oilseed rape, millet, sorghum, potato, sesame, ricinus, etc.) were placed in plastic pots filled with soil, then covered with 0.5-2 cm of soil, allowed to grow in a good greenhouse environment. The test plants were treated on the day of sowing. The tested compounds of the present invention were respectively dissolved in acetone, then added with Tween 80, diluted with a certain amount of water to obtain a solution of a certain concentration, and sprayed by a spray tower onto the plants. After the application, the plants were cultured for 2 weeks in the greenhouse, and then the experimental results of the weeding were recorded. The doses of the used compounds were 3, 6, 12, 24, 48 g ai./mu (1 mu=1/15 ha), and the averages were obtained from three replicates."}, "corn": {"system": "corn", "assay": "Pre-emergence stage, crop damage", "format": "in vivo", "settings": "24 g a.i./mu, 2 weeks", "excerpt": "as §1, §2, §3"}}}
{"smiles": "CC1(C)CON(Cc2ccc(Cl)cc2Br)C1=O", "note": "[Compound 1]", "values": [{"measurement": "plant damage level (growth control rate) on crop, pre-emergence stage", "setting": "rice; 6 g a.i./mu", "value": 0}, {"measurement": "plant damage level (growth control rate) on crop, pre-emergence stage", "setting": "rice; 12 g a.i./mu", "value": 0}, {"measurement": "plant damage level (growth control rate) on crop, pre-emergence stage", "setting": "rice; 24 g a.i./mu", "value": "1 (Level 1: growth control rate is greater than 0% and less than 15%)"}, {"measurement": "plant damage level (growth control rate) on crop, pre-emergence stage", "setting": "corn", "value": 0}]}
